# From patent US10968193B2, “Antidiabetic bicyclic compounds” (Merck Sharp & Dohme Corp., priority 2014, dated 2021)
# Biological target: T1, human GPR40 (Homo sapiens, UniProt O14842)
# T1 construct: expressed in transfected cells; host or cells: HEK cells stably expressing the aequorin reporter
# Assay: Inositol Phosphate Turnover (IP1) Assay 3
# Format: cell-based
# Details: HEK cells stably expressing human GPR40
# Procedure: Human and mouse GPR40 stable cell-lines were generated in CHO cells stably expressing NFAT BLA (Beta-lactamase). A human GPR40 stable cell-line was generated in HEK cells stably expressing the aequorin expressing reporter. The expression plasmids were transfected using lipofectamine (Life Technologies) following manufacturer's instructions. Stable cell-lines were generated following drug selection.
# Inositol Phosphate Turnover (IP1) Assay 3:
# The assay was performed in 384-well format. HEK cells stably expressing human GPR40 were plated at 7500 cells per well in growth medium (DMEM/10% fetal calf serum). Cell plates were then incubated 16 hours at 37 degrees in a 5% CO2 incubator.
# Measurement of Inositol Phosphate Turnover (IP) was performed using the CisBio IP-One kit (Part number 62IPAPEB). After the 16 hour incubation, the growth media was removed by centrifugation using the BlueWasher (AusWasher GUI Ver. v1.0.1.8) Protocol #21—“Light Dry” and 10 ul of stimulation buffer (prepared as described in the kit) was added to each well. In a separate plate, compounds were diluted in DMSO (200-fold over the final concentration in the assay well) and 50 nl was acoustically transferred to the appropriate well in the assay cell plate. The plates were then incubated for 60 minutes at 37 degrees in a 5% CO2 incubator. 10 ul of detection buffer (also prepared as described in the IP-One kit) was added to each well and the plates were incubated at rt for 60 minutes in the dark. The plates were then read in a Perkin Elmer EnVision or equivalent reader able to measure FRET. Fluorescent ratio of emission at 665 and 620 nm was then converted to IP1 concentration by back calculating from an IP1 standard curve prepared at the time of the assay. Data is normalized to % activity using a reference compound and EC50s determined using a standard 4-parameter fit.
# T1 sequence (O14842 whole entry): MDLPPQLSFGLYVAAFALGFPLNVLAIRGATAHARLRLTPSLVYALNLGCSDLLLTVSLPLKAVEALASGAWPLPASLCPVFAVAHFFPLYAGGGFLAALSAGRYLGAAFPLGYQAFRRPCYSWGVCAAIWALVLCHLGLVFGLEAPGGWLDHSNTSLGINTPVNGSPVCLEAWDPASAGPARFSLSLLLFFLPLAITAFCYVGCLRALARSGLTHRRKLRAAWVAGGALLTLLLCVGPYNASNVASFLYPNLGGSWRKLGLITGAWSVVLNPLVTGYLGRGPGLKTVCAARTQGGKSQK
row,Structure (SMILES),EC50
1,"COc1cc(-c2ccc(C3CCc4ccc([C@H](C5CCC5)[C@H](C)C(=O)O)cc4O3)cc2CN2[C@H](C)CC[C@H]2C)c(F)cn1 (single isomer, unassigned) [Example 97]",0.19 nM
2,"CCN(CC)Cc1cc(C2CCc3ccc([C@H](C4CCC4)[C@H](C)C(=O)O)cc3O2)ccc1-c1cc(OC)ncc1F (single isomer, unassigned) [Example 98]",0.09 nM
3,"CCN(CC)Cc1cc(C2CCc3ccc([C@H](C4CCC4)[C@H](C)C(=O)O)cc3O2)ccc1-c1cc(OC)ncc1F (single isomer, unassigned) [Example 99]",0.18 nM
4,"COc1cc(-c2ccc(C3CCc4ccc([C@H](C5CCC5)[C@H](C)C(=O)O)cc4O3)cc2CN2CCCC2C)c(F)cn1 (single isomer, unassigned) [Example 100]",0.14 nM
5,"COc1cc(-c2ccc(C3CCc4ccc([C@H](C5CCC5)[C@H](C)C(=O)O)cc4O3)cc2CN2CCCC2C)c(F)cn1 (single isomer, unassigned) [Example 101]",0.25 nM
6,"COc1cc(-c2ccc(C3CCc4ccc([C@H](C5CCC5)[C@H](C)C(=O)O)cc4O3)cc2CN2CCCCC2)c(F)cn1 (single isomer, unassigned) [Example 104]",1.1 nM
7,"COc1cc(-c2ccc(C3CCc4ccc([C@H](C5CCC5)[C@H](C)C(=O)O)cc4O3)cc2CN2CCCCC2)c(F)cn1 (single isomer, unassigned) [Example 105]",0.1 nM
8,"COc1cc(-c2ccc(C3CCc4ccc([C@H](C5CCC5)[C@H](C)C(=O)O)cc4O3)cc2CN2CCCCC23CC3)c(F)cn1 (single isomer, unassigned) [Example 106]",0.2 nM
9,"COc1cc(-c2ccc(C3CCc4ccc([C@H](C5CCC5)[C@H](C)C(=O)O)cc4O3)cc2CN2CCCCC23CC3)c(F)cn1 (single isomer, unassigned) [Example 107]",0.1 nM
10,"COc1cc(-c2ccc(C3CCc4ccc([C@H](C5CCC5)[C@H](C)C(=O)O)cc4O3)cc2CN2CCCC2(C)C)c(F)cn1 (single isomer, unassigned) [Example 108]",0.1 nM
11,"COc1cc(-c2ccc(C3CCc4ccc([C@H](C5CCC5)[C@H](C)C(=O)O)cc4O3)cc2CN2CCCC2(C)C)c(F)cn1 (single isomer, unassigned) [Example 109]",0.1 nM
12,"COc1cc(-c2ccc(C3CCc4ccc([C@H](C5CC5)[C@H](C)C(=O)O)cc4O3)c(CN3CCCC3(C)C)c2)ccn1 (single isomer, unassigned) [Example 111a]",3.2 nM
13,"COc1cc(-c2ccc(C3CCc4ccc([C@H](C5CC5)[C@H](C)C(=O)O)cc4O3)c(CN3CCCC3(C)C)c2)ccn1 (single isomer, unassigned) [Example 111b]",0.4 nM
14,"COc1cc(-c2ccc(C3CCc4ccc([C@H](C5CC5)[C@H](C)C(=O)O)cc4O3)c(CN3CCCC3)c2)ccn1 (single isomer, unassigned) [Example 112a]",2.3 nM
15,"COc1cc(-c2ccc(C3CCc4ccc([C@H](C5CC5)[C@H](C)C(=O)O)cc4O3)c(CN3CCCC3)c2)ccn1 (single isomer, unassigned) [Example 112b]",273 nM
16,"CCN(Cc1cc(-c2ccnc(OC)c2)ccc1C1CCc2ccc([C@H](C3CC3)[C@H](C)C(=O)O)cc2O1)C(C)C (single isomer, unassigned) [Example 113a]",0.4 nM
17,"CCN(Cc1cc(-c2ccnc(OC)c2)ccc1C1CCc2ccc([C@H](C3CC3)[C@H](C)C(=O)O)cc2O1)C(C)C (single isomer, unassigned) [Example 113b]",14 nM
18,"COc1cc(-c2ccc(C3CCc4ccc([C@H](C5CC5)[C@H](C)C(=O)O)cc4O3)c(CN(C)C(C)(C)C)c2)ccn1 (single isomer, unassigned) [Example 114a]",1.5 nM
19,"COc1cc(-c2ccc(C3CCc4ccc([C@H](C5CC5)[C@H](C)C(=O)O)cc4O3)c(CN(C)C(C)(C)C)c2)ccn1 (single isomer, unassigned) [Example 114b]",250 nM
